The target in assay [1] is human Keap1 Kelch (Homo sapiens, UniProt Q14145). The assay is described as follows: Fluorescence polarization (FP) competition assay with Cy5-Nrf2 peptide probe. The following applies: for Ki: ≥3 individual measurements; for ligand efficiency (LE): from FP Ki; for fold improvement in binding affinity (FP) over parent analogue: 7 vs 4, 12 vs 7, 13 vs 12. On the technique in general: Polarisation of emitted light reports the rotation of a fluorescent probe.

In assay [2] the test system is Nrf2-regulated genes (AKR1B10, NQO1, TRXR1, HO-1) in HaCaT human keratinocytes. The experiment in a line: HaCaT cell assay, Western Blotting of Nrf2-regulated proteins. Format: cell-based. As to conditions: HaCaT, 10 µM, 24 h.
Where [3] appears, read: FP (Ki/nM), Table S2, mean ± SEM, NA: not active (measured up to 4 mM).
Setting [4] is: Ki (FP), mean, text and figures.

Structures are written as SMILES.

What is called Ki is a measure of affinity in units of concentration, obtained from inhibition or displacement. Read a high Ki as a looser hold on the target.

Chain of human Keap1 Kelch (Q14145 321-609): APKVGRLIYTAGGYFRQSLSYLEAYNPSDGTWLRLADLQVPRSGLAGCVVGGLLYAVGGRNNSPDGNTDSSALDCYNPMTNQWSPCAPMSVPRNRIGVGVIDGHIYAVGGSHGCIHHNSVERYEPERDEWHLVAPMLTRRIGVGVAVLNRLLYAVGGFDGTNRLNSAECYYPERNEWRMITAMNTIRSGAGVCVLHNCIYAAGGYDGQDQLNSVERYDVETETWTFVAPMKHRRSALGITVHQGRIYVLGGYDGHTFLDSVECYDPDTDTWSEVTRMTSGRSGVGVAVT

As for `O=C(O)CCc1cccc(OCC(=O)NC2CCCCC2)c1` [Compound 2], the “activity in FP competition assay” value in assay [1] was “inactive”.
As for `O=C(COc1cccc(N2CCC(C(=O)O)CC2)c1)NC1CCCCC1` [Compound 3], the Ki in assay [1] (setting [3]) stood at 162000 ± 22000 nM; in assay [1] (Ki (FP), mean), 160000 nM. Moreover, the “ligand efficiency (LE)” value in assay [1] is 0.20.
For `O=C(O)CCc1ccc2ccc(OCC(=O)NC3CCCCC3)cc2c1` [Compound 4], the Ki in assay [1] (setting [3]) turned out to be 15500 ± 1300 nM; in assay [1] (Ki (FP), mean), 16000 nM. In assay [1], the “ligand efficiency (LE)” value is 0.25.
`O=C(O)CCc1ccc2ccc(OCC(=O)NC3CCOCC3)cc2c1` [Compound 5]: the Ki was found to be 38300 ± 2900 nM in assay [1] (setting [3]) and 38000 nM in assay [1] (Ki (FP), mean).
For the compound `O=C(O)CCc1ccc2ccc(OCC(=O)NN3CCOCC3)cc2c1` [Compound 6], the Ki in assay [1] (setting [3]) stood at 268000 ± 29000 nM; in assay [1] (Ki (FP), mean) it was 270000 nM.
For the compound `O=C(O)CCc1ccc2ccc(OCC(=O)NC3CCCCCC3)cc2c1` [Compound 7], in assay [1], the “fold improvement in binding affinity (FP) over parent analogue” value (“fold improvement … over parent analogue” for short) came out at 2 fold and the “ligand efficiency (LE)” value was 0.26. Further, in assay [1] (setting [3]), the Ki is 6560 ± 580 nM. In assay [1] (Ki (FP), mean), this compound returned a Ki of 6600 nM.
As for `O=C(O)CCc1ccc2ccc(OCC(=O)Nc3ccccc3)cc2c1` [Compound 8], the Ki in assay [1] (setting [3]) is 10200 ± 2400 nM; in assay [1] (Ki (FP), mean), 10000 nM.
For `COc1ccc(NC(=O)COc2ccc3ccc(CCC(=O)O)cc3c2)cc1` [Compound 9], the Ki turned out to be 69600 ± 9400 nM in assay [1] (setting [3]) and 70000 nM in assay [1] (Ki (FP), mean).
As to `Cc1cc(C)c(NC(=O)COc2ccc3ccc(CCC(=O)O)cc3c2)c(C)c1` [Compound 10], the Ki in assay [1] (setting [3]) came out at 21300 ± 710 nM; in assay [1] (Ki (FP), mean), 21000 nM.
For the compound `Cc1cc(C)c(C)c(NC(=O)COc2ccc3ccc(CCC(=O)O)cc3c2)c1C` [Compound 11], the Ki in assay [1] (setting [3]) worked out at 196000 ± 24000 nM; in assay [1] (Ki (FP), mean), 200000 nM.
Regarding `O=C(O)CC(c1ccccc1)c1ccc2ccc(OCC(=O)NC3CCCCCC3)cc2c1` (stereo not drawn) [Compound 12], in assay [1], the “fold improvement … over parent analogue” value turned out to be 6 fold and the “ligand efficiency (LE)” value came out at 0.25. Besides, affinity in assay [1] (setting [3]) was put at a Ki of 1060 ± 99 nM. The compound further yielded a Ki in assay [1] (Ki (FP), mean) of 1100 nM.
Regarding `COc1ccc(C(CC(=O)O)c2ccc3ccc(OCC(=O)NC4CCCCCC4)cc3c2)cc1` (stereo not drawn) [Compound 13], the “fold improvement … over parent analogue” value in assay [1] came to 34 fold. The results for the Ki in assay [1] (setting [3]) and in assay [1] (setting [4]) were 31.6 ± 2.6 nM and 32 nM, respectively. Moreover, the “ligand efficiency (LE)” value in assay [1] was 0.29.
As for `COc1cccc(C(CC(=O)O)c2ccc3ccc(OCC(=O)NC4CCCCCC4)cc3c2)c1` (stereo not drawn) [Compound 14], the Ki in assay [1] (setting [3]) worked out at 284 ± 31 nM; in assay [1] (setting [4]) it was 280 nM.
With `O=C(O)CC(c1ccc(Cl)cc1)c1ccc2ccc(OCC(=O)NC3CCCCCC3)cc2c1` (stereo not drawn) [Compound 15], the values for the Ki in assay [1] (setting [3]) and in assay [1] (setting [4]) were 294 ± 25 nM and 290 nM, respectively.
For the compound `O=C(O)CC(c1cccc(Cl)c1)c1ccc2ccc(OCC(=O)NC3CCCCCC3)cc2c1` (stereo not drawn) [Compound 16], the Ki in assay [1] (setting [3]) stood at 53.9 ± 6.1 nM; in assay [1] (setting [4]), 54 nM.
As for `COc1ccc(C(CC(=O)O)c2ccc3ccc(OCC(=O)NC4CCCCCC4)cc3c2)c(C)c1` (stereo not drawn) [Compound 17], the Ki in assay [1] (setting [3]) was 23.6 ± 2.2 nM; in assay [1] (setting [4]), 24 nM.
With `Cc1c(Cl)cccc1C(CC(=O)O)c1ccc2ccc(OCC(=O)NC3CCCCCC3)cc2c1` (stereo not drawn) [Compound 18], the Ki in assay [1] (setting [3]) came to 59.5 ± 8.4 nM; in assay [1] (setting [4]), 60 nM.
As for `O=C(O)CC(c1ccc2c(c1)OCO2)c1ccc2ccc(OCC(=O)NC3CCCCCC3)cc2c1` (stereo not drawn) [Compound 19], the inhibition constant Ki turned out to be 23.2 ± 1.3 nM in assay [1] (setting [3]) and 23 nM in assay [1] (setting [4]). The “ligand efficiency (LE)” value in assay [1] is 0.29.
On to `O=C(O)CC(c1ccc2c(c1)CCO2)c1ccc2ccc(OCC(=O)NC3CCCCCC3)cc2c1` (stereo not drawn) [Compound 20], for which the Ki in assay [1] (setting [3]) amounted to 35.5 ± 3.4 nM; in assay [1] (setting [4]), 36 nM.
In the same order, the values of `O=C(O)CC(c1ccc2ccc(OCC(=O)NC3CCCCCC3)cc2c1)c1ccc2occc2c1` (stereo not drawn) [Compound 21] are 38.3 ± 1.6 nM and 38 nM.
In the same order, the values of `O=C(O)CC(c1ccc2c(c1)OC(F)(F)O2)c1ccc2ccc(OCC(=O)NC3CCCCCC3)cc2c1` (stereo not drawn) [Compound 22] are 33.8 ± 4.7 nM and 34 nM.
For the compound `O=C(O)CC(c1ccc2c(c1)OCCO2)c1ccc2ccc(OCC(=O)NC3CCCCCC3)cc2c1` (stereo not drawn) [Compound 23], in assay [1] (setting [4]), the affinity, expressed as Ki, was 15 nM.
In the case of `Cc1cc2c(cc1C(CC(=O)O)c1ccc3ccc(OCC(=O)NC4CCCCCC4)cc3c1)CCO2` (stereo not drawn) [Compound 25], the “protein levels of Nrf2-regulated genes by WB” value (from here on “protein levels”) in assay [2] was “strong bands in WB for all tested proteins”. Moreover, the Ki in assay [1] (setting [3]) turned out to be 18.8 ± 1.7 nM; in assay [1] (setting [4]), 19 nM.
Take `Cc1cc2occc2cc1C(CC(=O)O)c1ccc2ccc(OCC(=O)NC3CCCCCC3)cc2c1` (stereo not drawn) [Compound 26]: the Ki is 15.6 ± 2.6 nM in assay [1] (setting [3]) and 16 nM in assay [1] (setting [4]).
Turning to `Cc1cc2c(cc1C(CC(=O)O)c1ccc3ccc(OCC(=O)NC4CCCCCC4)cc3c1)OC(F)(F)O2` (stereo not drawn) [Compound 27], the values for the Ki in assay [1] (setting [3]) and in assay [1] (setting [4]) were 14.1 ± 2.4 nM and 14 nM, respectively.
As for `O=C(O)CC(c1ccc2c(c1)OCO2)c1ccc2ccc(OCC(=O)NC3CCCCC3)cc2c1` (stereo not drawn) [Compound 29], the inhibitory constant (Ki) in assay [1] (setting [3]) was 57.1 ± 4.8 nM; in assay [1] (setting [4]) it was 57 nM.
Turning to `O=C(O)CC(c1ccc2c(c1)CCO2)c1ccc2ccc(OCC(=O)NC3CCCCC3)cc2c1` (stereo not drawn) [Compound 30], the inhibition constant Ki in assay [1] (setting [3]) came to 82.1 ± 7.9 nM; in assay [1] (setting [4]) it was 82 nM.
As to `O=C(O)CC(c1ccc2ccc(OCC(=O)NC3CCCCC3)cc2c1)c1ccc2occc2c1` (stereo not drawn) [Compound 31], the Ki in assay [1] (setting [3]) is 68.2 ± 12 nM; in assay [1] (setting [4]), 68 nM.
Taken in the same sequence, the figures for `O=C(O)CC(c1ccc2c(c1)OC(F)(F)O2)c1ccc2ccc(OCC(=O)NC3CCCCC3)cc2c1` (stereo not drawn) [Compound 32] were 51.4 ± 4.8 nM and 51 nM.
Consider `O=C(O)CC(c1ccc2c(c1)OCCO2)c1ccc2ccc(OCC(=O)NC3CCCCC3)cc2c1` (stereo not drawn) [Compound 33], for which the values for the Ki in assay [1] (setting [3]) and in assay [1] (setting [4]) were 29.3 ± 1.7 nM and 29 nM, respectively.
Taken in the same sequence, the figures for `Cc1cc2c(cc1C(CC(=O)O)c1ccc3ccc(OCC(=O)NC4CCCCC4)cc3c1)OCO2` (stereo not drawn) [Compound 34] were 18.1 ± 5.9 nM and 18 nM.
On to `Cc1cc2c(cc1C(CC(=O)O)c1ccc3ccc(OCC(=O)NC4CCCCC4)cc3c1)CCO2` (stereo not drawn) [Compound 35], for which the Ki in assay [1] (setting [3]) stood at 32.4 ± 1.3 nM; in assay [1] (setting [4]), 32 nM.
`Cc1cc2occc2cc1C(CC(=O)O)c1ccc2ccc(OCC(=O)NC3CCCCC3)cc2c1` (stereo not drawn) [Compound 36]: the results for the Ki in assay [1] (setting [3]) and in assay [1] (setting [4]) were 24.4 ± 0.4 nM and 24 nM, respectively.
For `Cc1cc2c(cc1C(CC(=O)O)c1ccc3ccc(OCC(=O)NC4CCCCC4)cc3c1)OC(F)(F)O2` (stereo not drawn) [Compound 37], the Ki in assay [1] (setting [4]) was 7.1 nM.
For the compound `Cc1cc2c(cc1C(CC(=O)O)c1ccc3ccc(OCC(=O)NC4CCCCC4)cc3c1)OCCO2` (stereo not drawn) [Compound 38], the Ki in assay [1] (setting [3]) came out at 14.9 ± 0.8 nM; in assay [1] (setting [4]), 15 nM.
As to `O=C(O)CC(c1ccc2c(c1)OCO2)c1ccc2ccc(OCC(=O)NC3C=CCCC3)cc2c1` (stereo not drawn) [Compound 39], the Ki in assay [1] (setting [3]) was found to be 24.5 ± 1.7 nM; in assay [1] (setting [4]), 25 nM.
In the case of `O=C(O)CC(c1ccc2c(c1)CCO2)c1ccc2ccc(OCC(=O)NC3C=CCCC3)cc2c1` (stereo not drawn) [Compound 40], in assay [2], the “protein levels” value is “strong bands in WB for all tested proteins”. The Ki amounted to 26.7 ± 4.2 nM in assay [1] (setting [3]) and 27 nM in assay [1] (setting [4]).
`O=C(O)CC(c1ccc2ccc(OCC(=O)NC3C=CCCC3)cc2c1)c1ccc2occc2c1` (stereo not drawn) [Compound 41]: the Ki in assay [1] (setting [3]) amounted to 21.1 ± 1.5 nM; in assay [1] (setting [4]) it was 21 nM.
On to `O=C(O)CC(c1ccc2c(c1)OC(F)(F)O2)c1ccc2ccc(OCC(=O)NC3C=CCCC3)cc2c1` (stereo not drawn) [Compound 42], for which the Ki in assay [1] (setting [3]) was 29.9 ± 2.2 nM; in assay [1] (setting [4]) it was 30 nM.
For `O=C(O)CC(c1ccc2c(c1)OCCO2)c1ccc2ccc(OCC(=O)NC3C=CCCC3)cc2c1` (stereo not drawn) [Compound 43], the Ki came out at 20.3 ± 2.1 nM in assay [1] (setting [3]) and 20 nM in assay [1] (setting [4]).
With `Cc1cc2c(cc1C(CC(=O)O)c1ccc3ccc(OCC(=O)NC4C=CCCC4)cc3c1)OCO2` (stereo not drawn) [Compound 44], in assay [2], the “protein levels” value is “strong bands in WB for all tested proteins”. The same compound came in with a Ki in assay [1] (setting [4]) of 3.9 nM.
Turning to `Cc1cc2c(cc1C(CC(=O)O)c1ccc3ccc(OCC(=O)NC4C=CCCC4)cc3c1)CCO2` (stereo not drawn) [Compound 45], the figures for the Ki in assay [1] (setting [3]) and in assay [1] (setting [4]) were 18.3 ± 2.4 nM and 18 nM, respectively.
In the same order, the values of `Cc1cc2occc2cc1C(CC(=O)O)c1ccc2ccc(OCC(=O)NC3C=CCCC3)cc2c1` (stereo not drawn) [Compound 46] are 17.8 ± 3.4 nM and 18 nM.
In the case of `Cc1cc2c(cc1C(CC(=O)O)c1ccc3ccc(OCC(=O)NC4C=CCCC4)cc3c1)OC(F)(F)O2` (stereo not drawn) [Compound 47], the Ki is 16.1 ± 3.8 nM in assay [1] (setting [3]) and 16 nM in assay [1] (setting [4]).
Take `Cc1cc2c(cc1C(CC(=O)O)c1ccc3ccc(OCC(=O)NC4C=CCCC4)cc3c1)OCCO2` (stereo not drawn) [Compound 48]: in assay [2], the “protein levels” value is “strong bands in WB for all tested proteins”. Also, the Ki in assay [1] (setting [3]) worked out at 19.2 ± 2.4 nM; in assay [1] (setting [4]), 19 nM.

Values taken from article PMC12455397 (Angewandte Chemie (International Ed. in English), 2025).
